Here are results for eight compounds from patent US5614497A, “Peptide, production and use thereof” (Takeda Chemical Industries, Ltd., priority 1991, dated 1997).

Structures are written as SMILES. *1 amine or outer side, *2 acyl side, *3 side chain or, on linkers, in order; H or OH if unused. Where a SMILES comes first, the peptide text is derived from it. [ ]: non-standard residue; d: D form. The star is where a group is joined. Tyr(3-F) = N[C@@H](Cc1ccc(O)c(F)c1)C(=O)O; Tyr(3-I) = N[C@@H](Cc1ccc(O)c(I)c1)C(=O)O; Phe(4-F) = N[C@@H](Cc1ccc(F)cc1)C(=O)O; Boc = CC(C)(C)OC(=O)*; CO = O=C([*:1])[*:2]; Ahx = NCCCCCC(=O)O; X1 = C1CCCN(*)CC1; βAla = NCCC(=O)O

For this assay, the target named is endothelin receptors. The experiment in a line: Receptor Binding Assay (displacement of radioactive-iodine-labeled endothelin-1 from swine heart membrane fraction). The following applies: membrane fraction prepared from swine heart; endothelin-1 labeled with radioactive iodine; incubation at 25° C, 1 hour. As for the experimental part: The membrane fraction prepared from swine heart was diluted to 0.15 mg/ml with an assaying buffer and dispensed to assaying tubes at 100 μl per tube. To this membrane fraction suspension were added 2 μl of a solution of endothelin-1labeled with 5 nM radioactive iodine and 3 μl of a 50% dimethylsulfoxide solution of the subject peptide, followed by incubation at 25° C. After 1 hour, the suspension was diluted with 900 μl of an ice-cooled assaying buffer and centrifuged at 12,000×G for 10 minutes to separate supernatant and precipitate. The precipitate contained cell membranes and endothelin receptors embedded therein. The receptor-bound endothelin, labeled with radioactive iodine, was also recovered in the precipitate. The radioactive iodine in this precipitate was counted, using a gamma ray counter, to determine the amount of radioactive-iodine-labeled endothelin bound to the endothelin receptors. The results of the quantitative determination are shown in IC50 (M) below.
With `CC(C)C[C@H](NC(=O)OC(C)(C)C)C(=O)N[C@H](Cc1c[nH]c2ccccc12)C(=O)N[C@H](C)C(=O)NCCC(=O)N[C@@H](Cc1ccc(O)cc1)C(=O)N[C@H](Cc1ccccc1)C(=O)O` [Example 1, Boc-Leu-(D)Trp-(D)Ala-βAla-Tyr-(D)Phe-OH] (Boc-L[dW][dA][βAla]Y[dF]-OH), the IC50 (as a rule, the concentration at which inhibition is half-maximal) was 4.6 nM.
`CC(C)C[C@H](NC(=O)OC(C)(C)C)C(=O)N[C@H](Cc1c[nH]c2ccccc12)C(=O)N[C@H](C)C(=O)NCCC(=O)N[C@@H](Cc1ccc(O)cc1)C(=O)N[C@@H](Cc1ccccc1)C(=O)O` [Example 2, Boc-Leu-(D)Trp-(D)Ala-βAla-Tyr-Phe-OH] (Boc-L[dW][dA][βAla]YF-OH): the IC50 stood at 9 nM.
Take `CC(C)C[C@H](NC(=O)OC(C)(C)C)C(=O)N[C@H](Cc1c[nH]c2ccccc12)C(=O)N[C@H](C)C(=O)NCCCCCC(=O)N[C@@H](Cc1ccc(O)cc1)C(=O)N[C@@H](Cc1ccccc1)C(=O)O` [Example 5, Boc-Leu-(D)Trp-(D)Ala-εAhx-Tyr-Phe-OH] (Boc-L[dW][dA][Ahx]YF-OH): the IC50 amounted to 7.2 nM.
The value for `CC(C)C[C@H](NC(=O)OC(C)(C)C)C(=O)N[C@H](Cc1c[nH]c2ccccc12)C(=O)N[C@H](C)C(=O)NCCC(=O)N[C@@H](Cc1ccc(O)c(F)c1)C(=O)N[C@@H](Cc1ccc(F)cc1)C(=O)O` [Example 38, Boc-Leu-(D)Trp-(D)Ala-βAla-(m-F)Tyr-(p-F)Phe-OH] (Boc-L[dW][dA][βAla][Tyr(3-F)][Phe(4-F)]-OH) was 60 nM; that for `CC(C)C[C@H](NC(=O)N1CCCCCC1)C(=O)N[C@H](Cc1c[nH]c2ccccc12)C(=O)N[C@H](C)C(=O)NCCC(=O)N[C@@H](Cc1ccc(O)cc1)C(=O)N[C@H](Cc1ccccc1)C(=O)O` [Example 39, hexamethyleneimino-CO-Leu-(D)Trp-(D)Ala-βAla-Tyr-(D)Phe-OH] ({X1-CO}-L[dW][dA][βAla]Y[dF]-OH) was 0.34 nM; that for `CC(C)C[C@H](NC(=O)N1CCCCCC1)C(=O)N[C@H](Cc1c[nH]c2ccccc12)C(=O)N[C@H](C)C(=O)NCCC(=O)N[C@@H](Cc1ccc(O)c(I)c1)C(=O)N[C@H](Cc1ccccc1)C(=O)O` [Example 43, Hexamethyleneimino-CO-Leu-(D)Trp-(D)Ala-βAla-Tyr(I)-(D)Phe-OH] ({X1-CO}-L[dW][dA][βAla][Tyr(3-I)][dF]-OH) was 0.71 nM.
For the compound `CC(C)C[C@H](NC(=O)OC(C)(C)C)C(=O)N[C@H](Cc1c[nH]c2ccccc12)C(=O)N[C@H](C)C(=O)NCCC(=O)N[C@@H](CCC(=O)O)C(=O)O` [Reference Example 1, Boc-Leu-(D)Trp-(D)Ala-βAla-Glu--OH, reference compound] (Boc-L[dW][dA][βAla]E-OH), the 50% inhibitory concentration (IC50) came to 700 nM.
Take `CC(C)C[C@H](NC(=O)OC(C)(C)C)C(=O)N[C@H](Cc1c[nH]c2ccccc12)C(=O)N[C@H](C)C(=O)NCCC(=O)N[C@H](CC(C)C)C(=O)O` [Reference Example 2, Boc-Leu-(D)Trp-(D)Ala-βAla-(D)Leu--OH, reference compound] (Boc-L[dW][dA][βAla][dL]-OH): the IC50 was 420 nM.
